Source: patent EP0242855A2, “Crosslinking reaction inhibitor for collagen” (priority 1986, dated 1987)
“And” between values parts separate entries of the source, which are not always exact repeats. Identical values can stand only once. Like-named read-outs stand apart in the source and are kept apart here.

How the values were obtained:
[1] = target: T1, collagen (Gallus gallus, UniProt P02457+P02467); format: biochemical, spring chicken
T1 construct: collagen obtained by grinding and deliming the bone of a spring chicken; from tissue; host or cells: bone of a spring chicken, ground and delimed (demineralised)

[2] = LD50 safety data, rat subcutaneous treatment; conditions: in vivo, sc
From the text: The silicon compound used in the present invention involves no problem with respect to safety. Shown below are data as to the safety of the silicon compounds.

[3] = silicon compound 0.01 %, collagen 100 mg, glucose 0.2 M, pH 7.4, 37 C, 4 weeks
[4] = silicon compound 0.01 %, collagen 100 mg, glucose 0.2 M, pH 7.4, 37 C, 4 weeks, solubilized by cutting with CNBr
[5] = silicon compound 0.05 %, collagen 100 mg, glucose 0.2 M, pH 7.4, 37 C, 4 weeks
[6] = silicon compound 0.05 %, collagen 100 mg, glucose 0.2 M, pH 7.4, 37 C, 4 weeks, solubilized by cutting with CNBr
[7] = silicon compound 0.1 %, collagen 100 mg, glucose 0.2 M, pH 7.4, 37 C, 4 weeks

T1 sequence (P02467 78-1363): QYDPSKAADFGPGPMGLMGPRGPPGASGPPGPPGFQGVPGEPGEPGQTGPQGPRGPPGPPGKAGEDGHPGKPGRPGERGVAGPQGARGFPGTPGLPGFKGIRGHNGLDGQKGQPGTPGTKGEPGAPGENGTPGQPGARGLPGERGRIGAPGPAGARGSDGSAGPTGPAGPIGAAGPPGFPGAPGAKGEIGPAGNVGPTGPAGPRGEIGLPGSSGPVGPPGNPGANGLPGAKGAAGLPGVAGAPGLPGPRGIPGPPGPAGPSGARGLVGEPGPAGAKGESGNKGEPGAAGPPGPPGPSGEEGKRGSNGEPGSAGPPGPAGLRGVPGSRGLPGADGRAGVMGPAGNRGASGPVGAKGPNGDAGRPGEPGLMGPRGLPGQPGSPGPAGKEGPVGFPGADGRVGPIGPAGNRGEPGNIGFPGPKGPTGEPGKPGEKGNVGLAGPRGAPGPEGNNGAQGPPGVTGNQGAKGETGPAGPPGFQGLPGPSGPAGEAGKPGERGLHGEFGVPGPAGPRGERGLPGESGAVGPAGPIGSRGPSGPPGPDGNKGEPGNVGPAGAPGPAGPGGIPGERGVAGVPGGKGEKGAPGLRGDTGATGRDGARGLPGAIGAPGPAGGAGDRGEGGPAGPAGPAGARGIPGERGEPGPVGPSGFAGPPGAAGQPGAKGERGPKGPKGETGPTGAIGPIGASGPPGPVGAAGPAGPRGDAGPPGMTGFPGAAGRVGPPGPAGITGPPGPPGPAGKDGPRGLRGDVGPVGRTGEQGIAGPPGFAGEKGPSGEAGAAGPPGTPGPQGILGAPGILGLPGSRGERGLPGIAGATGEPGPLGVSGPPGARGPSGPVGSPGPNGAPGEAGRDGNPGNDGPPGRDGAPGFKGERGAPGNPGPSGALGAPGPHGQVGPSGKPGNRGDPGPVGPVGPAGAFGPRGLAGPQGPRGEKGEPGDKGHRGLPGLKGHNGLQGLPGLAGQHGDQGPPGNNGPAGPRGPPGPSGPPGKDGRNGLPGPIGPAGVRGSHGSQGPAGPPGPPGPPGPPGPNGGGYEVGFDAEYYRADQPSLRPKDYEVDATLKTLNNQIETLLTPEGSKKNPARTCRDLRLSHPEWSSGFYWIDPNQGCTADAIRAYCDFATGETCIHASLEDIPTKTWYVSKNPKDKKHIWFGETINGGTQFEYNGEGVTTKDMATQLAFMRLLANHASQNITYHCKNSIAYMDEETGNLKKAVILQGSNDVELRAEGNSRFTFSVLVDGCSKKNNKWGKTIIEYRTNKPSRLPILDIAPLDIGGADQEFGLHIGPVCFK
T1 sequence (P02457 152-1207): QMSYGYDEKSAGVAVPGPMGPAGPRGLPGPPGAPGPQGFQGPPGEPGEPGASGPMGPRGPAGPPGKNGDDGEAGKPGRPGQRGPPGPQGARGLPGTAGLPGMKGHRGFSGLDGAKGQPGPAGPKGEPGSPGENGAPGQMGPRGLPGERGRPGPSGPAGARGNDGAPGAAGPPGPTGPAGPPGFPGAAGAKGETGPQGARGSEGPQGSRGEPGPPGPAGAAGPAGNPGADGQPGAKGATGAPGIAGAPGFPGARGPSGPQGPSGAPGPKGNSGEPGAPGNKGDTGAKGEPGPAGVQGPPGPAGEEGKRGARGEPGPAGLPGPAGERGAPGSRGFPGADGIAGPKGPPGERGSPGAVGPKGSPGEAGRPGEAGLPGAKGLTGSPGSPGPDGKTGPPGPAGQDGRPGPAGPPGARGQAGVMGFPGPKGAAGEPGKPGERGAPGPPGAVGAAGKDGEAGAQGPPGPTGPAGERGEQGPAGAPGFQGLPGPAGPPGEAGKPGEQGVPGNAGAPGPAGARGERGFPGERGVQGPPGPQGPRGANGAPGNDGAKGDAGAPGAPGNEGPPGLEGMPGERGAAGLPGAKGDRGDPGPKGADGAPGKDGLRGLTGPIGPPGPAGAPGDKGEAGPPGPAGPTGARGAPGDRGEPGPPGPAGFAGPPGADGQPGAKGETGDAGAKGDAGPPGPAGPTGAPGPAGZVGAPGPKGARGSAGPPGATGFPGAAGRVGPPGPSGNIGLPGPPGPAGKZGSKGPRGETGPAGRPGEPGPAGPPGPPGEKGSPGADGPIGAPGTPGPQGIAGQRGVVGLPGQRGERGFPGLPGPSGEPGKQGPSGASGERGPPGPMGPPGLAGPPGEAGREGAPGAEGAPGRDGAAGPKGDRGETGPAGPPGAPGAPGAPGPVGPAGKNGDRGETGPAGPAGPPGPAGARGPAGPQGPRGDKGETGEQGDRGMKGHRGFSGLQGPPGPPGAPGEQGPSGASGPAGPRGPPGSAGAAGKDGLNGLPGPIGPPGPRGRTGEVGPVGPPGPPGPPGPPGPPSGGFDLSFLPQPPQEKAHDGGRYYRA

SMILES | Portion A/ portion B [1, 3] | Soluble collagen (%) [1, 4] [%] | Portion A/ portion B [1, 5] | Soluble collagen (%) [1, 6] [%] | Portion A/ portion B [1, 7] | crosslinking and polymerization of collagen ([1]; addition of 0.01 to 0.1%) | Soluble collagen (%) ([1]; pH 7.4) | Portion A/ portion B ([1]; silicon compound 0.003 %, collagen 100 mg, glucose 0.2 M, pH 7.4, 37 C, 4 weeks) | Portion A/ portion B ([1]; silicon compound 0.03 %, collagen 100 mg, glucose 0.2 M, pH 7.4, 37 C, 4 weeks) | Portion A/ portion B ([1]; silicon compound 0.3 %, collagen 100 mg, glucose 0.2 M, pH 7.4, 37 C, 4 weeks) | LD50 [2] [mg/kg] | Soluble collagen (%) ([1]; silicon compound 0.1 %, collagen 100 mg, glucose 0.2 M, pH 7.4, 37 C, 4 weeks, solubilized by cutting with CNBr)
O[Si](O)(O)C1CCCCC1 [Cyclohexyl silanetriol, cyclohexyl silanetriol] | 0.42 | 68 | 0.45 | 73 |  |  |  |  |  |  |  | 
C[Si](O)(O)O[Si](C)(O)O [Dimer of methyl silnetriol] | 0.35 | 80 | 0.40 | 75 |  |  |  |  |  |  |  | 
C[Si](C)(O)O [Dimethyl silanediol, dimethyl silanediol] | 0.43 |  |  |  | 0.35 |  |  |  |  |  |  | 
CCCCCCCCCCCC[Si](O)(O)O [Dodecyl silanetriol, dodecyl silanetriol] | 0.45 | 68 | 0.44 | 72 |  |  |  |  |  |  |  | 
C[Si](O)(O)O [Methyl silanetriol, methyl silanetriol] | 0.40 |  |  |  | 0.40 | inhibits the crosslinking and polymerization of collagen | 50% and 81% and 86% and 76% and 54% | 0.55 | 0.35 | 0.54 | ≥ 1000 | 
O[Si](O)(O)c1ccccc1 [Phenyl silanetriol] | 0.40 | 70 | 0.41 | 72 |  |  |  |  |  |  |  | 
CC=C[Si](O)(O)O [Propenyl silanetriol, propenyl silanetriol] | 0.45 | 71 |  |  | 0.39 |  |  |  |  |  |  | 72
